In patent US20170137387A1, “PHARMACOLOGICALLY ACTIVE QUINAZOLINEDIONE DERIVATIVES” (ORION CORPORATION, priority 2014, published 2017):

Columns and labels:
[1] = target: T1, human GABAB1 and GABAB2 receptor subunits (Homo sapiens, UniProt O75899+Q9UBS5); assay: Potentiation of GABA dose-response, FLIPR calcium assay; assay type: cell-based; conditions: compound at 10 μM; EC50 of GABA divided by EC50 of GABA in the presence of positive allosteric modulator
T1 construct: expressed in transfected cells; host or cells: CHO cells
Procedure: (§1) CHO cells expressing the human GABAB1 and GABAB2 receptor subunits co-expressing promiscuous Galpha16 proteins to force couple the receptor to the intracellular calcium signalling pathway were used to study GABAB pharmacology in vitro. The cells were maintained at 37° C. in a 5% CO2 95% air atmosphere in HAM F-12 medium supplemented with 10% foetal bovine serum and selection antibiotics.
(§2) The day before the experiment the cells were detached and plated into black-walled clear bottom 384-well plates at a cell density of 20 000 cells per well. The growth medium was removed and the cells were incubated with FLIPR Calcium 5 Assay reagent (Molecular Devices, CA, USA) diluted 1:1 in Probenecid-Ringer for 1 h at 37° C. in dark. Probenecid-Ringer buffer consisted of 150 mM NaCl, 3 mM KCl, 1.2 mM MgCl2, 1 mM CaCl2, 5 mM glucose, 20 mM 2-(4-(2-hydroxyethyl)piperazin-1-yl)ethanesulfonic acid (HEPES), and 2.5 mM Probenecid (pH 7.4 adjusted with 1.0 M NaOH and osmolarity adjusted to […]). Compounds were dissolved in Probenecid-Ringer. […] The samples were excited at 470-495 nm and emission was detected at 515-575 nm. All experiments were performed at 37° C.
(§3) Baseline fluorescence minimum was subtracted from maximum for the calculation of agonism and positive allosteric modulator pharmacology. Both in the agonism mode and in the allosteric mode, the efficacy was related to the intrinsic activity (IA) of the endogenous agonist GABA at 30 μM (positive allosteric modulator efficacy at 10 μM/GABA efficacy or agonism efficacy at 30 μM/GABA efficacy). To determine potentiation of GABA dose-response, the compounds, at a concentration of 10 μM diluted in Probenecid-Ringer, were added by FLIPR tetra followed by addition of GABA (diluted in water in the concentration range 0.123-10 μM). The EC50 values were determined using a four-parameter logistic fit (model 205 in ActivityBase XE). The EC50 value of GABA was divided with the EC50 value of GABA in the presence of positive allosteric modulator to determine potentiation of GABA dose-response EC50 value.

[2] = target: T1, human GABAB1 and GABAB2 receptor subunits; assay: Agonism and positive allosteric modulator pharmacology in vitro, two-addition FLIPR calcium assay; assay type: cell-based; conditions: CHO cells co-expressing Galpha16; for IA (GABAB agonism): agonism efficacy at 30 μM / GABA efficacy at 30 μM; for IA (GABAB positive allosteric modulation): positive allosteric modulator efficacy at 10 μM (with EC10.5 GABA) / GABA efficacy at 30 μM
Procedure: as §1, §2
A two-addition protocol was used to determine agonism and positive allosteric modulator pharmacology in the same assay using a kinetic read out. Agonism pharmacology of compounds was studied in the first addition in the concentration range 0.123-30 μM in quadruplicate at each concentration. In the second addition, a low (EC10.5) concentration of GABA was applied to detect the positive allosteric modulator pharmacology of the compounds to be studied. The EC10.5 concentration was determined from the GABA EC50 value using the formula ECF≈(F/(100-F))^1/H·EC50, wherein F is the fraction of full response and H is Hill slope.
as §3

T1 sequence (Q9UBS5 15-961 limits assumed): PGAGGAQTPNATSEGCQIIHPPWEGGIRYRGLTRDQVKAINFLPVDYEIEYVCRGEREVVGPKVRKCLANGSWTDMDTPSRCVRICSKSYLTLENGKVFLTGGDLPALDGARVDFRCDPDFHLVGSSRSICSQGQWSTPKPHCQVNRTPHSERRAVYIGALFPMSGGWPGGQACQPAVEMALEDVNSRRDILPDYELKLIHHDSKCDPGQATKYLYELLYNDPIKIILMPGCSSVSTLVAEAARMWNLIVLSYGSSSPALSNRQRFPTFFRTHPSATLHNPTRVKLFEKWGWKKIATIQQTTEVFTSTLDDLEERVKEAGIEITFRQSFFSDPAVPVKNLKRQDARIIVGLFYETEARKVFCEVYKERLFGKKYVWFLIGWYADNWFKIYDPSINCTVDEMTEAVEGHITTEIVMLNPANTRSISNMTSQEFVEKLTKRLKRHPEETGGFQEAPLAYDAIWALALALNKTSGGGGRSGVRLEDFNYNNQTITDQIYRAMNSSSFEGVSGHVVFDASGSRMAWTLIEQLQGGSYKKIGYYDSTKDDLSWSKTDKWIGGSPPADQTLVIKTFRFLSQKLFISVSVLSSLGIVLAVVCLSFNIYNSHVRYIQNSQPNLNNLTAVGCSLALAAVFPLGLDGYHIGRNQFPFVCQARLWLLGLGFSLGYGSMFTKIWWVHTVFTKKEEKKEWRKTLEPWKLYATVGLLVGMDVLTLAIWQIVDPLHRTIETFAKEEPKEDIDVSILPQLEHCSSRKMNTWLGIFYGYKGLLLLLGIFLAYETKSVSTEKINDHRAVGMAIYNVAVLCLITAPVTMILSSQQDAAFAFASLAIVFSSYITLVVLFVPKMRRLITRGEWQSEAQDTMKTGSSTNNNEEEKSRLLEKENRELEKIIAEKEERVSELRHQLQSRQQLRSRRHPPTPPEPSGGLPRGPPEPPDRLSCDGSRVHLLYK
T1 sequence (O75899 42-941): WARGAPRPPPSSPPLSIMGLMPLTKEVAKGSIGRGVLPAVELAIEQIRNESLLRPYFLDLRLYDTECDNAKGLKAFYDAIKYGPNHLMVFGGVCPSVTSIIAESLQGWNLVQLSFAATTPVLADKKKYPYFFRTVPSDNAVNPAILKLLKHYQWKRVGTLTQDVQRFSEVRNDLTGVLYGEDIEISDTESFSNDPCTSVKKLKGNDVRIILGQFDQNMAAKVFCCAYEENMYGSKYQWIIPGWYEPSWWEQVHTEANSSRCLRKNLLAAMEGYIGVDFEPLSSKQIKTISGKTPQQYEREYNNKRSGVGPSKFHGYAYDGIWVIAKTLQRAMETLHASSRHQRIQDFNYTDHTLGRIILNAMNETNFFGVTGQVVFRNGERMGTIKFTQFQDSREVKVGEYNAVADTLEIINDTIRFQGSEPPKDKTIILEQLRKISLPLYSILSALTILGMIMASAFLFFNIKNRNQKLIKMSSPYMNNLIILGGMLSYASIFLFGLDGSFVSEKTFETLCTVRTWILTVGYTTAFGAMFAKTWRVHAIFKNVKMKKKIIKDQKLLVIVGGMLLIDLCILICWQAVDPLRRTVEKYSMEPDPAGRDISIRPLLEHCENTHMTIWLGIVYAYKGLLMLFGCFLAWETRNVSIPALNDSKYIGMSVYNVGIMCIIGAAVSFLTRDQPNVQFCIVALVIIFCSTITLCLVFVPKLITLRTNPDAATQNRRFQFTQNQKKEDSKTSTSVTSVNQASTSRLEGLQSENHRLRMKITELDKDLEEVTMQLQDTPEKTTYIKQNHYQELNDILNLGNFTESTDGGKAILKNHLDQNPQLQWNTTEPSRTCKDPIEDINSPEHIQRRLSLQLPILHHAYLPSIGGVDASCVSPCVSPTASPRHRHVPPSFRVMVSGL

SMILES | Potentiation of GABA (fold) [1] | IA (GABAB agonism) [2] | IA (GABAB positive allosteric modulation) [2]
Cn1c(=O)n(C2CCCc3ccccc32)c(=O)c2ccc(C(F)(F)F)cc21 (stereo not drawn) [Example 12, 1-Methyl-3-(1,2,3,4-tetrahydronaphthalen-1-yl)-7-(trifluoromethyl)quinazoline-2,4(1H,3H)-dione] | 25.8 fold | 0.20 | 0.67
C[C@H](c1ccc(Cl)cc1)n1c(=O)c2ccc(Cl)cc2n(CC(C)(C)O)c1=O [Example 117, (R)-7-Chloro-3-(1-(4-chlorophenyl)ethyl)-1-(2-hydroxy-2-methylpropyl)quinazoline-2,4(1H,3H)-dione] | 19.8 fold | 0.09 | 0.51
COc1c(F)cc2c(=O)n(Cc3ccc(Br)cc3)c(=O)n3c2c1OC(C)(C)C3 [Example 84, 6-(4-Bromobenzyl)-9-fluoro-10-methoxy-2,2-dimethyl-2H-[1,4]oxazino[2,3,4-ij]quinazoline-5,7(3H,6H)-dione] | 33.4 fold | 0.10 | 0.86
Cn1c(=O)n(C2(c3ccc(Cl)cc3)CC2)c(=O)c2ccc(F)cc21 [Example 43, 3-(1-(4-Chlorophenyl)cyclopropyl)-7-fluoro-1-methylquinazoline-2,4(1H,3H)-dione] | 3.8 fold | 0.17 | 0.51
C[C@H](c1ccc(Cl)cc1)n1c(=O)c2ccc(Cl)cc2n(CC2(C)COC2)c1=O [Example 137, (R)-7-Chloro-3-(1-(4-chlorophenyl)ethyl)-1-((3-methyloxetan-3-yl)methyl)quinazoline-2,4(1H,3H)-dione] | 19.7 fold | 0.05 | 0.64

Second part, the compound after the results:

Potentiation of GABA (fold) [1] | IA (GABAB agonism) [2] | IA (GABAB positive allosteric modulation) [2] | SMILES
12.7 fold | 0.04 | 0.77 | CC1(C)Cn2c(=O)n(Cc3ccc(Br)cc3)c(=O)c3cc(F)c(F)c(c32)O1 [Example 66, 6-(4-Bromobenzyl)-9,10-difluoro-2,2-dimethyl-2H-[1,4]oxazino[2,3,4-ij]quinazoline-5,7(3H,6H)-dione]
6.7 fold | 0.02 | 0.53 | CC1(C)Cn2c(=O)n(Cc3ccc(Br)cc3)c(=O)c3ccc(Cl)c(c32)O1 [Example 127, 6-(4-Bromobenzyl)-10-chloro-2,2-dimethyl-2H-[1,4]oxazino[2,3,4-ij]quinazoline-5,7(3H,6H)-dione]
1.9 fold | 0.21 | 0.39 | CC(C(N)=O)n1c(=O)n(Cc2ccc(Br)cc2)c(=O)c2ccc(F)cc21 (stereo not drawn) [Example 37, 2-(3-(4-Bromobenzyl)-7-fluoro-2,4-dioxo-3,4-dihydroquinazolin-1(2H)-yl)propanamide]
23.1 fold | 0.30 | 0.85 | CC(C)(O)Cn1c(=O)n(Cc2ccc(Br)cc2)c(=O)c2ccc(F)cc21 [Example 39, 3-(4-Bromobenzyl)-7-fluoro-1-(2-hydroxy-2-methylpropyl)quinazoline-2,4(1H,3H)-dione]
7.3 fold | 0.18 | 0.37 | C[C@H](c1ccc(Cl)cc1)n1c(=O)c2ccc(F)cc2n(C)c1=O [Example 42, (R)-3-(1-(4-Chlorophenyl)ethyl)-7-fluoro-1-methylquinazoline-2,4(1H,3H)-dione]
60.4 fold | 0.13 | 0.71 | CC(C)(O)Cn1c(=O)n(Cc2ccc(Br)cc2)c(=O)c2ccc(Cl)c(F)c21 [Example 123, 3-(4-Bromobenzyl)-7-chloro-8-fluoro-1-(2-hydroxy-2-methylpropyl)quinazoline-2,4(1H,3H)-dione]
